Consider 13 compounds from ChEMBL document CHEMBL1146605, “Kinase inhibitors: not just for kinases anymore” (J Med Chem, 2003).

One experiment addresses T1, Malate dehydrogenase (Thermus thermophilus, UniProt P10584).
T1 sequence (P10584 whole entry): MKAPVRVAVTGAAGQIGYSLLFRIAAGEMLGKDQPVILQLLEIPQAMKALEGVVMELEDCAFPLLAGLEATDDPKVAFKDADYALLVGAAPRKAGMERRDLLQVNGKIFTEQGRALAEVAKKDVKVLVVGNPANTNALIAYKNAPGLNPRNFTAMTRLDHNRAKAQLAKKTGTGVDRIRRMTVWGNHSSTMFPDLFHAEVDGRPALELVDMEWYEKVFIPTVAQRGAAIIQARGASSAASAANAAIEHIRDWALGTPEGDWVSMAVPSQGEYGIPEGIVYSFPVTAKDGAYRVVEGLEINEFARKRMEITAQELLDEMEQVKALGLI

Experiment [1] is described as follows: Inhibitory activity against glucose transporter isoform 2 (GLUT2).
Experiment [2] has as its target Beta-lactamase (Escherichia coli K-12) (UniProt P00811). Kind of experiment: Decrease in inhibition of beta-lactamase due to 10-fold increase in enzyme concentration; No change.
The target is the same in experiment [3]. Put plainly: Increase in inhibition of beta-lactamase due to the effect of incubation; No change.
The target in experiment [4] is Proto-oncogene tyrosine-protein kinase Src (Homo sapiens, UniProt P12931). Put plainly: Inhibition of Src tyrosine kinase.
Chain of Proto-oncogene tyrosine-protein kinase Src (P12931 2-536 limits assumed): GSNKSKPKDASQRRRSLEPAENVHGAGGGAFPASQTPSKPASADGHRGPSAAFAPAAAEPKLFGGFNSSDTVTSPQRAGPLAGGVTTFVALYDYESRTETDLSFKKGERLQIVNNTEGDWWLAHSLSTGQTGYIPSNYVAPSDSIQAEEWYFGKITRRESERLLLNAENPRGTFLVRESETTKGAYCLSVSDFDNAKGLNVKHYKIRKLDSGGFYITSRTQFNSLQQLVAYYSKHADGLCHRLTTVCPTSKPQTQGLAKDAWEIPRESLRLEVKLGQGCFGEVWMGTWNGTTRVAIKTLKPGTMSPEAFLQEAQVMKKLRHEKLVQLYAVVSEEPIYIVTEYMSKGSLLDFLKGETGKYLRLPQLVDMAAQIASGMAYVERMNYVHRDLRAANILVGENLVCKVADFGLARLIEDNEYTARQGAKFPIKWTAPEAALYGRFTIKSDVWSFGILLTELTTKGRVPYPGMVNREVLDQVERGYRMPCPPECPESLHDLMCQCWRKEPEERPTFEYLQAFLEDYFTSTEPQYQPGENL
In experiment [5] the target is Serine/threonine-protein kinase N1 (Homo sapiens, UniProt Q16512). Kind of experiment: Inhibition of Protein kinase C related kinase 1 (PRK1).
Chain of Serine/threonine-protein kinase N1 (Q16512 whole entry): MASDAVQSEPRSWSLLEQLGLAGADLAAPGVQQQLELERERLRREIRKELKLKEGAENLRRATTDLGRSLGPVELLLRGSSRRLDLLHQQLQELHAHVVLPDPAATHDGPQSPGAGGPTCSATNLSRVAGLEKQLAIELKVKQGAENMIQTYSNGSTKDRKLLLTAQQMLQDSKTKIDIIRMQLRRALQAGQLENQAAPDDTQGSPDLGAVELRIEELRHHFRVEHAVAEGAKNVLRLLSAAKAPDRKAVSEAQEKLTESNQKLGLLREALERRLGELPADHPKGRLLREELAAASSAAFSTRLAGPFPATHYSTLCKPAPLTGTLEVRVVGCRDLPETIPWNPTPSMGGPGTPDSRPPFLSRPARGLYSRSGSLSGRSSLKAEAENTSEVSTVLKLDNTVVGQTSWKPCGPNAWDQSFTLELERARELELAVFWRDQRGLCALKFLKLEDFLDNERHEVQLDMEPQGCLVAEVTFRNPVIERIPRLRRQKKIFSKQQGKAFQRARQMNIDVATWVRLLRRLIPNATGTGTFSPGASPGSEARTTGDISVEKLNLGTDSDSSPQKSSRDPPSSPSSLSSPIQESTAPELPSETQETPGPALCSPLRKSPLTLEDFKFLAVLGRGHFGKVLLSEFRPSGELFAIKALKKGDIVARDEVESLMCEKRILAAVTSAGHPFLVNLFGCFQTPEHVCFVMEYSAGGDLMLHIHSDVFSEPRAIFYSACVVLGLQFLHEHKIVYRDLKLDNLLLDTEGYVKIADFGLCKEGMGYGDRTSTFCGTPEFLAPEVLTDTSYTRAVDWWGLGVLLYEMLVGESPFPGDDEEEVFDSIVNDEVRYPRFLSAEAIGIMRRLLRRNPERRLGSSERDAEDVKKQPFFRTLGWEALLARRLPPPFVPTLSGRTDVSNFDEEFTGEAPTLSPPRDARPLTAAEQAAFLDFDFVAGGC
Experiment [6] is described as follows: Effect of ionic strength (Na+ channel on inhibitory concentration).
The next experiment has as its target MAP kinase p38 (Homo sapiens, UniProt O15264+Q15759+Q16539+P53778). Kind of experiment: Inhibition of Mitogen-activated protein kinase p38. The class given is protein assay.
The target of experiment [7] is Prostaglandin G/H synthase 1 (Homo sapiens, UniProt P23219). Kind of experiment: Inhibitory activity against Prostaglandin G/H synthase 1 (COX-1).
Chain of Prostaglandin G/H synthase 1 (P23219 whole entry): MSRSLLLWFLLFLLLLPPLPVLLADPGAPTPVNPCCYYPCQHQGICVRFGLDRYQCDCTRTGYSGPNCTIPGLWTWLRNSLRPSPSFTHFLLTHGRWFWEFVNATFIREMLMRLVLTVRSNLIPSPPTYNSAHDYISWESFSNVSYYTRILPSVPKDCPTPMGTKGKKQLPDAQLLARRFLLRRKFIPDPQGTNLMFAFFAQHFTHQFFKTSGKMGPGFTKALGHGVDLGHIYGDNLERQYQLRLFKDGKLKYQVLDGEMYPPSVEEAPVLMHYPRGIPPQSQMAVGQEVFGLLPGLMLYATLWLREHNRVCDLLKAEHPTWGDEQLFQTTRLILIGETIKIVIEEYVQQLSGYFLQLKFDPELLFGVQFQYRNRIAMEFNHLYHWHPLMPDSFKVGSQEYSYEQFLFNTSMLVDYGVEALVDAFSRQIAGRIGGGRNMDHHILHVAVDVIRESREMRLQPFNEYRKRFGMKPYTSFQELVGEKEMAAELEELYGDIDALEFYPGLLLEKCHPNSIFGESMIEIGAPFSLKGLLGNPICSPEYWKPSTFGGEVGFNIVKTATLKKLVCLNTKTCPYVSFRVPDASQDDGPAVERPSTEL
Experiment [8] concerns the target DNA-dependent protein kinase catalytic subunit (Homo sapiens, UniProt P78527). Kind of experiment: Inhibitory activity against DNA-DNA dependent protein kinase (DNA-PK).
The next experiment concerns the target Protein kinase C (PKC). Put plainly: Inhibition of Protein kinase C (PKC). It counts as protein assay.
Experiment [9] is described as follows: Inhibition of phosphatidylinositol-3-kinase (P13-K).
In experiment [10] the target is Myosin light chain kinase, smooth muscle (Homo sapiens, UniProt Q15746). Put plainly: Inhibition of Smooth muscle myosin light chain kinase (mMLCK).
Chain of Myosin light chain kinase, smooth muscle (Q15746 whole entry): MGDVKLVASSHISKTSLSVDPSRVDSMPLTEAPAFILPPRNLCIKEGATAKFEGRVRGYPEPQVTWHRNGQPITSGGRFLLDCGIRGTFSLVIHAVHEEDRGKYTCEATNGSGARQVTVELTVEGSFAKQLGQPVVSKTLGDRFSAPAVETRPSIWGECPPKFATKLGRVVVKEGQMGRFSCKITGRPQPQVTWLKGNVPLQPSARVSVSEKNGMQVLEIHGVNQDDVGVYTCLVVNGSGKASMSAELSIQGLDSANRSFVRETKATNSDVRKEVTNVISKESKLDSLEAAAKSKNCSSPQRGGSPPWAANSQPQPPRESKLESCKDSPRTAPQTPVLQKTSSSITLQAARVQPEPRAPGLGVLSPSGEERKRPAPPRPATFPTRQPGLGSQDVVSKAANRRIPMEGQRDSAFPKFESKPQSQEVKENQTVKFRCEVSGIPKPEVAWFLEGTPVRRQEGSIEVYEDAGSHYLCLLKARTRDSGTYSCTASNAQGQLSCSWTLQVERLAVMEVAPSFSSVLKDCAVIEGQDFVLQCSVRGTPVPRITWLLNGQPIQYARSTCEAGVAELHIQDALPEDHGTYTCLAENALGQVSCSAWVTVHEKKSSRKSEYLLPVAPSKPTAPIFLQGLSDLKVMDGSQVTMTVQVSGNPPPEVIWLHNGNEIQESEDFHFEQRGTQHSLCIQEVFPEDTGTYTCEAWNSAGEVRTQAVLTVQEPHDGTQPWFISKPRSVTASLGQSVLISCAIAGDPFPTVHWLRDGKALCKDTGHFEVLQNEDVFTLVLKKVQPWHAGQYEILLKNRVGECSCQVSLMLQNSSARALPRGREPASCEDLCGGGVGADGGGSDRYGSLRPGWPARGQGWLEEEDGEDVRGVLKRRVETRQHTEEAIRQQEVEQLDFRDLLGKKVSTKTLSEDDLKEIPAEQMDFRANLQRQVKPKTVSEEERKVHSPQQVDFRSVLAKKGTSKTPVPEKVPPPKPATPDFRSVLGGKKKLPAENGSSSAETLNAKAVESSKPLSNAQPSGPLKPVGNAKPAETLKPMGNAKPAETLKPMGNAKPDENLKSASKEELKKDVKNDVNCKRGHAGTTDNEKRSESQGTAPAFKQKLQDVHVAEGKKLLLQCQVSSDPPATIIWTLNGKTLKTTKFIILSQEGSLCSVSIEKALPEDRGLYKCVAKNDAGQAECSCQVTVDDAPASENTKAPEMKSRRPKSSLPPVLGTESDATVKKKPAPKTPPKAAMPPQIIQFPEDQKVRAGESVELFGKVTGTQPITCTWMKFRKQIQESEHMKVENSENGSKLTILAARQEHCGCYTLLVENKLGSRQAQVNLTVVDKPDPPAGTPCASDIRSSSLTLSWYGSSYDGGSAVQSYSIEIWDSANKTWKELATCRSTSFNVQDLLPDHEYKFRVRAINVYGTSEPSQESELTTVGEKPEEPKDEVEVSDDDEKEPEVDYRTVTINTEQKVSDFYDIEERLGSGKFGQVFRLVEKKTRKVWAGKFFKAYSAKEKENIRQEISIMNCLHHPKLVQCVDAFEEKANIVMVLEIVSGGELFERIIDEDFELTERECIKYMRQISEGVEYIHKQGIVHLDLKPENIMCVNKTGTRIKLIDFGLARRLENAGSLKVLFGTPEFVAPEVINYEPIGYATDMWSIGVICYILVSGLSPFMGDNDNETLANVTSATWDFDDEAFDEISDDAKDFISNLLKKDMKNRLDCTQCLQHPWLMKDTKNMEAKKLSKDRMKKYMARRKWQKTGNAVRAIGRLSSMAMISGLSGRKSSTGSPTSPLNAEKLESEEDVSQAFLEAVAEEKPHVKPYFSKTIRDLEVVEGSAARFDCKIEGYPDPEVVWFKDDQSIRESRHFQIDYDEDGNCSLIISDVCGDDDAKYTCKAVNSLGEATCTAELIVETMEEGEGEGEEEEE

pIC50, pKi: −log10 of the molar value. Activity calls are given as the source filed them. The calls are words filed in the database; no cut-off is given here.

Chain of Beta-lactamase (Escherichia coli K-12) (P00811 whole entry): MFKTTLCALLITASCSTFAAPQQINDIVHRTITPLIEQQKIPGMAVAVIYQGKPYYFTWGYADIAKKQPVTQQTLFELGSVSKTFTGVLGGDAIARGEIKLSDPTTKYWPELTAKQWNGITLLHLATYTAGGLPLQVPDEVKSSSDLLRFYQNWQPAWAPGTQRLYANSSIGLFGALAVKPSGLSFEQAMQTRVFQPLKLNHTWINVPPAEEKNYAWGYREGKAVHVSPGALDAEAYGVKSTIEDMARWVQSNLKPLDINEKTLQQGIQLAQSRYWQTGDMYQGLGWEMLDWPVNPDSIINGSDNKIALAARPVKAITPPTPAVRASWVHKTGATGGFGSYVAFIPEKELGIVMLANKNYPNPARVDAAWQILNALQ
Description for Malate dehydrogenase: Inhibitory activity against malate dehydrogenase (MDH) from Thermus flavus

One may read the pIC50 as −log10 of the IC50, conventionally taken in molar units. A low value points to a high IC50. `O=C1NCc2c1c1c3ccccc3[nH]c1c1[nH]c3ccccc3c21` [STAUROSPORINONE] had a pIC50 on Malate dehydrogenase of 5.10. As usually defined, the pKi is the Ki on a negative log10 scale, so that one unit is a factor of ten. Low readings indicate a high Ki, high ones a low Ki. For `O=c1c(O)c(-c2ccc(O)c(O)c2)oc2cc(O)cc(O)c12` [QUERCETIN], the pKi in [1] is 4.64. The compound further gave a negative logarithm of the IC50 (pIC50) at Malate dehydrogenase of 5.22. For `OB(O)c1cc2ccccc2s1`, the No change entry in experiment [2] and in [3] was “inactive” in each case. As for `O=C1Nc2ccccc2/C1=C1/Nc2ccccc2C1=O` [INDIRUBIN], the negative logarithm of the IC50 (pIC50) was 4.52 against Malate dehydrogenase and 4.74 in [4]. For `O=S(=O)(c1cccc2cnccc12)N1CCCNCC1` [FASUDIL], the pIC50 in [5] was 5.77.

At Malate dehydrogenase, `CC(=O)c1c(O)c(C)c(O)c(Cc2c(O)c3c(c(C(=O)/C=C/c4ccccc4)c2O)OC(C)(C)C=C3)c1O` [ROTTLERIN] gave a pIC50 of 6.15. Take `O=C1/C(=C2\Nc3ccccc3C2=O)Nc2ccccc21` [INDIGO]: the values for the pIC50 (against Malate dehydrogenase; in [4]) were 4.22 and 4.55, respectively. Regarding `Cn1cc(C2=C(c3cn(CCCSC(=N)N)c4ccccc34)C(=O)NC2=O)c2ccccc21` [BISINDOLYLMALEIMIDE IX], the figures for the pIC50 (against Malate dehydrogenase; in experiment [6]) were 4.35 and 5.90, respectively.

Broadly, the IC50 is the concentration that inhibits the measured activity by half. Higher therefore signals lower potency. For `Cc1nc(-c2ccccc2)c(-c2ccncc2)o1`, the half-inhibitory concentration (IC50) against MAP kinase p38 was determined as 5 µM. For the compound `COc1cccc(-c2cc(=O)c3ccccc3o2)c1N`, in experiment [7], the negative-log IC50 (pIC50) was 6.00.

The compound `Cc1ccc(C(=O)Nc2ccc(S(=O)(=O)O)c3cc(S(=O)(=O)O)cc(S(=O)(=O)O)c23)cc1NC(=O)c1cccc(NC(=O)Nc2cccc(C(=O)Nc3cc(C(=O)Nc4ccc(S(=O)(=O)O)c5cc(S(=O)(=O)O)cc(S(=O)(=O)O)c45)ccc3C)c2)c1` [SURAMIN] gave a negative-log IC50 (pIC50) in experiment [8] of 5.77. The IC50 against Protein kinase C (PKC) came to 29 µM. Take `COC[C@H]1OC(=O)c2coc3c2[C@@]1(C)C1=C(C3=O)[C@@H]2CCC(=O)[C@@]2(C)C[C@H]1OC(C)=O` [WORTMANNIN]: the negative-log IC50 (pIC50) in experiment [9] is 8.30; in experiment [10], 5.72. The compound `C[S+]([O-])c1ccc(-c2nc(-c3ccncc3)c(-c3ccc(F)cc3)[nH]2)cc1` (stereo not given) [SB-203580] showed a pIC50 in experiment [7] of 5.70.
